Where a name gives a salt, the structure may show the parent alone.

The nature of the first series: in vitro. Conditions: rat, gh3-tre-luc cells, AC50 (uM) modified / 1000.
The molecule `C[N+]1(C)CCC(=C(c2ccccc2)c2ccccc2)CC1` [Diphemanil methylsulfate] registered a CC50 at 24 h above 20 µM.

For `CN(C)C(=O)C(c1ccccc1)c1ccccc1` [Diphenamid], the CC50 at 24 h is above 90 µM.

In the case of `NC(=O)Oc1ccc(Cc2ccccc2)cc1` [Diphenan], the CC50 at 24 h was above 50 µM.

The molecule `OC(CCCN1CCCCC1)(c1ccccc1)c1ccccc1` [Diphenidol] gave a cytotoxic concentration (CC50) at 24 h above 50 µM.

The molecule `CC(CCC(=O)O)(c1ccc(O)cc1)c1ccc(O)cc1` [Diphenolic acid] gave a CC50 at 24 h above 90 µM.

As for `c1ccc(SSc2ccccc2)cc1` [Diphenyl disulfide], the CC50 at 24 h was above 90 µM.

For the molecule `O=C(Oc1ccccc1)c1cccc(C(=O)Oc2ccccc2)c1` [Diphenyl isophthalate], the 50% cytotoxic concentration (CC50) at 24 h is above 100 µM.

Regarding `c1ccc(Oc2ccccc2)cc1` [Diphenyl oxide], the CC50 at 24 h was above 90 µM.

The molecule `O=C(Oc1ccccc1)c1ccccc1C(=O)Oc1ccccc1` [Diphenyl phthalate] came in with a CC50 at 24 h of 53.7 µM.

Take `c1ccc(Sc2ccccc2)cc1` [Diphenyl sulfide]: the CC50 at 24 h is above 90 µM.

In turn, `c1ccc(Nc2ccccc2)cc1` [Diphenylamine] registered a CC50 at 24 h above 90 µM.

As for `O=C(Oc1ccccc1)Oc1ccccc1` [Diphenylcarbonate], the CC50 at 24 h is above 90 µM.

For the molecule `O=c1c(-c2ccccc2)c1-c1ccccc1` [Diphenylcyclopropenone], the midpoint of cytotoxicity, the CC50 at 24 h, lay at 5.54 µM.

In turn, `c1ccc(Cc2ccccc2)cc1` [Diphenylmethane] had a cytotoxic concentration (CC50) at 24 h above 90 µM.

As to `CN1CCC(OC(c2ccccc2)c2ccccc2)CC1` [Diphenylpyraline hydrochloride], the half-maximal cytotoxic concentration (CC50) at 24 h was above 20 µM.

The molecule `O=C(Nc1ccccc1)Nc1ccccc1` [Diphenylurea] registered a CC50 at 24 h above 90 µM.

Take `C1CCN(CN2CCCCC2)CC1` [Dipiperidinomethane]: the CC50 at 24 h is above 90 µM.

Regarding `CC(C)(C)C(=O)CC(=O)C(C)(C)C` [Dipivaloylmethane], the CC50 at 24 h is above 100 µM.

Molecule `CNCC(O)c1ccc(OC(=O)C(C)(C)C)c(OC(=O)C(C)(C)C)c1` (centres unmarked) [Dipivefrin hydrochloride] showed a CC50 at 24 h of 10.3 µM.

As for `CC[N+](CC)(CC)CCOC(=O)C(C1CCCC1)C1CCCC1` [Diponium bromide], the cytotoxic concentration (CC50) at 24 h was above 50 µM.

As for `O=P(O)(O)OCC(O)CO` (centres unmarked) [Dipotassium glycerophosphate], the CC50 at 24 h is above 50 µM.

The molecule `C=CCOC(=O)/C=C\C(=O)OCC=C` [Diprop-2-en-1-yl (2Z)-but-2-enedioate] yielded a CC50 at 24 h above 90 µM.

As to `CC(C)OC(=O)CCC(=O)OC(C)C` [Dipropan-2-yl butanedioate], the CC50 at 24 h is above 90 µM.

As to `CCCOC(=O)c1ccc(C(=O)OCCC)nc1` [Dipropyl 2,5-pyridinedicarboxylate], the CC50 at 24 h is above 90 µM.

`CCCSSCCC` [Dipropyl disulfide]: the 50% cytotoxic concentration (CC50) at 24 h is above 90 µM.

In turn, `CCCOC(=O)CCCCC(=O)OCCC` [Dipropyl hexanedioate] returned a CC50 at 24 h above 90 µM.

Molecule `CCCOC(=O)c1ccccc1C(=O)OCCC` [Dipropyl phthalate] registered a CC50 at 24 h above 90 µM.

As to `CCCNCCC` [Dipropylamine], the CC50 at 24 h was above 90 µM.

Regarding `COCCCOCCCOC` [Dipropylene glycol dimethyl ether], the CC50 at 24 h was above 90 µM.

In turn, `COCC(C)OCC(C)O` (centres unmarked) [Dipropylene glycol monomethyl ether] showed a CC50 at 24 h above 90 µM.

Take `CC(CO)OC(C)CO` (centres unmarked) [Dipropylene glycol]: the CC50 at 24 h was above 90 µM.

Molecule `COCC(C)OCC(C)OC(C)=O` (centres unmarked) [Dipropyleneglycol methyl ether acetate] displayed a CC50 at 24 h above 90 µM.

Take `OCCN(CCO)c1nc(N2CCCCC2)c2nc(N(CCO)CCO)nc(N3CCCCC3)c2n1` [Dipyridamole]: the CC50 at 24 h is above 50 µM.

The molecule `[O-][n+]1ccccc1SSc1cccc[n+]1[O-]` [Dipyrithione] showed a CC50 at 24 h of 0.205 µM.

`CC(=O)Oc1cccc(C(=O)O)c1OC(C)=O` [Dipyrocetyl]: the CC50 at 24 h was above 50 µM.

`c1cc[n+]2c(c1)-c1cccc[n+]1CC2` [Diquat dibromide monohydrate] yielded a half-maximal cytotoxic concentration (CC50) at 24 h above 50 µM.

Regarding `CC[C@H]1OC(=O)[C@H](C)[C@@H](O[C@H]2C[C@@](C)(OC)[C@@H](O)[C@H](C)O2)[C@H](C)[C@@H](O[C@@H]2O[C@H](C)C[C@H](N(C)C)[C@H]2O)[C@](C)(O)C[C@@H](C)[C@@H]2N[C@@H](COCCOC)O[C@H]([C@H]2C)[C@]1(C)O` [Dirithromycin], the CC50 at 24 h is above 50 µM.

In turn, `CCCCCCCCCC[N+](C)(CCCCCCCCCC)CCC[Si](OC)(OC)OC` [Disiquonium chloride] showed a CC50 at 24 h of 25.6 µM.

Regarding `O=S(=O)(O)c1ccc2cc(O)c(S(=O)(=O)O)cc2c1` [Disodium 3-hydroxynaphthalene-2,7-disulfonate], the CC50 at 24 h is above 90 µM.

In turn, `O=S(=O)(O)c1ccccc1/C=C/c1ccc(-c2ccc(/C=C/c3ccccc3S(=O)(=O)O)cc2)cc1` [Disodium 4,4'-bis(2-sulfostyryl)biphenyl] displayed a CC50 at 24 h above 80 µM.

Turning to `O=[N+]([O-])c1ccc(/C=C/c2ccc([N+](=O)[O-])cc2S(=O)(=O)O)c(S(=O)(=O)O)c1` [Disodium 4,4'-dinitro-2,2'-stilbenedisulfonate], the CC50 at 24 h is above 90 µM.

`CN1c2c(nc(N)[nH]c2=O)NCC1CNc1ccc(C(=O)N[C@@H](CCC(=O)O)C(=O)O)cc1` (some centres unmarked) [Disodium 5-methyltetrahydrofolate] yielded a CC50 at 24 h above 50 µM.

Turning to `O=S(=O)(O)c1cccc(S(=O)(=O)O)c1` [Disodium benzene-1,3-disulfonate], the CC50 at 24 h is above 90 µM.

`O=S(=O)(O)CCCS(=O)(=O)O` [Disodium propane-1,3-disulfonate]: the CC50 at 24 h was above 50 µM.

`CC(C)N(CCC(C(N)=O)(c1ccccc1)c1ccccn1)C(C)C` (centres unmarked) [Disopyramide] registered a CC50 at 24 h above 50 µM.

`CC(=O)OCCN(CCOC(C)=O)c1ccc(N=Nc2ccc([N+](=O)[O-])cc2C#N)cc1` [Disperse Red 82]: half-maximal cytotoxicity (CC50 at 24 h) was put at 54 µM.

`N#Cc1sc2c(=O)c3ccccc3c(=O)c=2sc1C#N` [Dithianon] came in with a CC50 at 24 h of 29.4 µM.

`CCN1/C(=C/C=C/C=C/c2sc3ccccc3[n+]2CC)Sc2ccccc21` [Dithiazanine iodide] came in with a CC50 at 24 h of 4.14 µM.

Take `NC(=S)C(N)=S` [Dithiooxamide]: the CC50 at 24 h was above 90 µM.

For the molecule `CSC(=O)c1c(C(F)F)nc(C(F)(F)F)c(C(=O)SC)c1CC(C)C` [Dithiopyr], half-maximal cytotoxicity (CC50 at 24 h) was put at 57.6 µM.

With `CCCCCCCCCCCOC(=O)c1ccccc1C(=O)OCCCCCCCCCCC` [Diundecyl phthalate], the CC50 at 24 h was above 50 µM.

Staying with this series, now noted: rat, gh3-tre-luc cells, AC50 (uM) modified / 1000, Tox21_110001=Tox21_111893; viability, 1 nM T3 present, 24 h.
Molecule `O=C1c2ccccc2C(=O)C1C(=O)C(c1ccccc1)c1ccccc1` [Diphacinone] yielded a CC50 at 24 h above 50 µM.

Staying with this series, now noted: rat, gh3-tre-luc cells, AC50 (uM) modified / 1000, Tox21_110001=Tox21_112593; viability, 1 nM T3 present, 24 h.
For the molecule `CCOC(=O)C1(c2ccccc2)CCN(CCC(C#N)(c2ccccc2)c2ccccc2)CC1` [Diphenoxylate hydrochloride], the CC50 at 24 h is above 50 µM.

The series is the same for the next values; noted with them: rat, gh3-tre-luc cells, AC50 (uM) modified / 1000, Tox21_110001=Tox21_112825; viability, 1 nM T3 present, 24 h.
`CCOC(=O)C1(c2ccccc2)CCN(CCC(C#N)(c2ccccc2)c2ccccc2)CC1` [Diphenoxylate hydrochloride]: it took 19.7 µM to reach half-maximal cytotoxicity (CC50 at 24 h).

The same series, now with this note: rat, gh3-tre-luc cells, AC50 (uM) modified / 1000, Tox21_110001=Tox21_201556; viability, 1 nM T3 present, 24 h.
Consider `N#CC(c1ccccc1)c1ccccc1` [Diphenylacetonitrile], for which the CC50 at 24 h was above 90 µM.

The same series, now with this note: rat, gh3-tre-luc cells, AC50 (uM) modified / 1000, Tox21_110001=Tox21_202343; viability, 1 nM T3 present, 24 h.
With `CCOP(=S)(OCC)SCCSCC` [Disulfoton], the CC50 at 24 h was above 90 µM.

The same series, now with this note: rat, gh3-tre-luc cells, AC50 (uM) modified / 1000, Tox21_110001=Tox21_300861; viability, 1 nM T3 present, 24 h.
The molecule `CCOP(=S)(OCC)SCCSCC` [Disulfoton] came in with a CC50 at 24 h above 40 µM.

Staying with this series, now noted: rat, gh3-tre-luc cells, AC50 (uM) modified / 1000, Tox21_110001=Tox21_301190; viability, 1 nM T3 present, 24 h.
The molecule `O=S(=O)(c1ccccc1)c1ccccc1` [Diphenylsulfone] came in with a CC50 at 24 h above 90 µM.

Still in this series, the particulars now being: rat, gh3-tre-luc cells, AC50 (uM) modified / 1000, Tox21_110001=Tox21_303401; viability, 1 nM T3 present, 24 h.
In turn, `O=P(O)(Oc1ccccc1)Oc1ccccc1` [Diphenyl phosphate] registered a CC50 at 24 h above 90 µM.

Broadly, the CC50 is the concentration that lowers cell viability or growth by half. Low values mean greater toxicity to the cells, high ones lower toxicity to the cells.
